This is an account of results in patent US20050143391A1, “Heterocyclic amides with alpha-4 integrin antagonist activity” (J. Uriach Y Compañia S.A., priority 2002, published 2005).

This assay addresses T1, integrin α4β1 (Homo sapiens, UniProt P05556+P13612).
T1 construct: endogenous in cells; host or cells: Jurkat cells
Put plainly: Inhibition of α4β1-dependent cell adhesion (Jurkat cells to peptide CS-1). It is filed as cell-based. The conditions noted are these: adhesion of Jurkat cells to CS-1-coated plates; products preincubated with cells at 37° C. for 30 minutes; at least 6 product concentrations. How it is done:
Inhibition of α4β1-Dependent Cell Adhesion
Inhibition of α4β1-dependent cell adhesion was assayed by evaluating the interaction between the peptide CS-1 (H-CLHGPEILDVPST-CONH2) and Jurkat cells (T lymphocyte cell line expressing activated integrin α4β1 but not integrin α4β7) after preincubation of said cells with the compounds of formula I to be tested. The peptide CS-1 was synthesized by conventional solid phase chemistry and purified by HPLC. Its identity was determined by elemental analysis and mass spectroscopy.
1.—Preparation of CS-1-Coated Plates
96-black well plates (Costar 3925) were used. 200 μL of 2% bovine serum albumin solution (BSA, Sigma α4503) was added per well and the plate was incubated for 2 hours at 37° C. The solution was discarded and the plate was washed twice with 200 μL of phosphate buffered saline solution (PBS, Gibco 14190-094) per well. Then, 200 μL of 10 μg/mL N-succinimidyl 3-(2-pyridyldithio)propionate solution (SPDP, Sigma P-3415) was added per well, and the plate was incubated at 37° C. for 30 minutes. The remaining solution was discarded and the plate was twice washed with 200 μL per well of PBS. Next, 200 μL of 25 μg/mL CS-1 peptide solution (equivalent to 5 μg/well) was added per well and the plate was incubated at 37° C. for 2 hours and then overnight at 4° C.
2.—Jurkat Cell Line: Culture and Fluorescent Labelling
Jurkat cells were kept in culture at a density comprised between 2×10^5 and 1.5×10^6 cells/mL in 1640 RPMI medium (Gibco 21875-034) enriched with 10% fetal calf serum (FCS, Gibco 10270-106).
50×10^6 cells were extracted, centrifuged (1200 rpm, 10 min, room temperature) and the medium was discarded. Cells were resuspended in 5 mL of RPMI, and 10 μL of a 1 mM solution of the fluorophore calceine.AM (Molecular Probes, C-3100) was added. The suspension was incubated for 30 min at 37° C. in the darkness, with occasional shaking. 40 mL of RPMI was added to stop the labelling and the suspension was centrifuged (1200 rpm, 10 min, room temperature). The medium was discarded, and the labelled cells were washed with 40 mL of RPMI in order to remove the unincorporated fluorescent probe. Finally, cells were resuspended in RPMI enriched with 10% FCS to obtain a 8×10^6 cells/mL suspension.
The plate previously prepared was twice washed with 200 μL per well of PBS and blocked with 200 μL of 1% BSA for at least 1 hour at room temperature.
The products to be tested were dissolved in dimethylsulfoxide at a concentration of 10 mM and dilutions thereof were prepared in RPMI medium enriched with 10% FCS. The products were preincubated with the Jurkat cells at 37° C. for 30 minutes, at a product concentration comprised between 1 nM and 10 μM, at a cell density of 4×10^6 cells/mL and at a maximal dimethylsulfoxide concentration of 0.1%.
100 μL of the resulting cell-product supsension was added per well (cellular density 4×10^5 cells/well). The product was omitted in the control wells and cells or CS-1 were omitted in the blanks. The plate was incubated for 60 min at room temperature in the-darkness, was twice washed with 200 μL per well of RPMI and then 100 μL of PBS was added. The plate was read with a fluorescence reader at an excitation wavelength of 485 nm and at an emission wavelength of 530 nm.
Maximal adhesion (100%) was determined as the average of the fluorescence intensities (FI) of the control wells, and the minimal adhesion as the average FI of the blanks. The adhesion inhibition percentage was determined using the following formula: [formula]
The results are expressed as the IC50 values (concentration producing 50% inhibition). IC50 values were calculated by testing at least 6 product concentrations and by adjusting the inhibition percentages to a dose-response curve of variable slope.

T1 sequence (P13612 34-1032): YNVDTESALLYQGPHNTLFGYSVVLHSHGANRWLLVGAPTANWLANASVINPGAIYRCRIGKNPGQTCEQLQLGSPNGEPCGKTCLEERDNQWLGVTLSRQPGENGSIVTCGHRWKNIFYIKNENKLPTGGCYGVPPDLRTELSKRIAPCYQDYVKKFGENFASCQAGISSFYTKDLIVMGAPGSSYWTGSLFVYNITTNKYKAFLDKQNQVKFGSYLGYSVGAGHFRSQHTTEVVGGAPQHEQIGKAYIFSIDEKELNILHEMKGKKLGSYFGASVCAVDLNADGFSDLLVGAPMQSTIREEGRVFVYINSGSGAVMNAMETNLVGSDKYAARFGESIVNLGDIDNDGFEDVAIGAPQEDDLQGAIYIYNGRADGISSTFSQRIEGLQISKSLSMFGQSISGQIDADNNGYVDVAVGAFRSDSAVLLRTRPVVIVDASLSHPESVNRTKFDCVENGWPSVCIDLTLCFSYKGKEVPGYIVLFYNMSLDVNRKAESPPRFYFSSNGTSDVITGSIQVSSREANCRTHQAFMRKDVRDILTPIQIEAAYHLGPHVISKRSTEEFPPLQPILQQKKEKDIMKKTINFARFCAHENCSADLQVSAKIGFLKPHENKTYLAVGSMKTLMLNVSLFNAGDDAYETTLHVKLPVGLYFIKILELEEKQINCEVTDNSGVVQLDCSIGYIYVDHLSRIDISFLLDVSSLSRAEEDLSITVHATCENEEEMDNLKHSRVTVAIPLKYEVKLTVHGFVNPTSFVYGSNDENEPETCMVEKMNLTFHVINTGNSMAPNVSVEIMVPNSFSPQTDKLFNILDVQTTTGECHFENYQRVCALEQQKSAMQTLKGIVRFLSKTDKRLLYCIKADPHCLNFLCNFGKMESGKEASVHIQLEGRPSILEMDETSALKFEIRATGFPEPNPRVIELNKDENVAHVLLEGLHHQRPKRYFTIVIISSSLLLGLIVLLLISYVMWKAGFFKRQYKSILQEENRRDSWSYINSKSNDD
T1 sequence (P05556 21-798): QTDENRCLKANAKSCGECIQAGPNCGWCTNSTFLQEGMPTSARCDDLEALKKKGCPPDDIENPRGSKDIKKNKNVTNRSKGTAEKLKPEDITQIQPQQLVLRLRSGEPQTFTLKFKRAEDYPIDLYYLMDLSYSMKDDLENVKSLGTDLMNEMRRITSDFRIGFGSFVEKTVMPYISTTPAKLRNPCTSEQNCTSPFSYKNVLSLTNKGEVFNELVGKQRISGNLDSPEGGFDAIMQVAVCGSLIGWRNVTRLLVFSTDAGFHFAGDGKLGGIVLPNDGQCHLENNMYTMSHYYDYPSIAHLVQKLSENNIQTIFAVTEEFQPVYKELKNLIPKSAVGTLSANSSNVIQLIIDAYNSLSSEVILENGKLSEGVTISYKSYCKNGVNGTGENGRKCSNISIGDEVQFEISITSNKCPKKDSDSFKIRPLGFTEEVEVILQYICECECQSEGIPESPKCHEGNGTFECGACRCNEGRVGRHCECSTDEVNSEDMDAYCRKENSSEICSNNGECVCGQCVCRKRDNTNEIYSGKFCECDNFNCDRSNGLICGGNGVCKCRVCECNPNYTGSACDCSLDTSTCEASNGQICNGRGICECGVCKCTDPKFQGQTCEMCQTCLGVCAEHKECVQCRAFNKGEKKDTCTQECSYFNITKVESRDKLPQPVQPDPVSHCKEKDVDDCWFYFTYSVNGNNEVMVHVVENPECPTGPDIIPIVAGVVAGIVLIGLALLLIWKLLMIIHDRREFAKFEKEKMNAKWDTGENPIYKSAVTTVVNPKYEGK

Broadly, the IC50 is the concentration needed to halve the response being measured. With `Cc1ccc(S(=O)(=O)N2CCC[C@H]2C(=O)N[C@@H](CNC(=O)N2CCC(CN3CCCCC3)CC2)C(=O)O)cc1` [Example 105, (2S)-3-[[4-(1-Piperidylmethyl)piperidin-1-ylcarbonyl]amino]-2-[N-tosyl-L-prolyl]aminopropionic Acid], the IC50 is 120 nM. That is a sub-micromolar value.

In turn, `Cc1ccc(S(=O)(=O)N2CCC[C@H]2C(=O)N[C@@H](CCC(=O)N2CCC(CN3CCCC3=O)CC2)C(=O)O)cc1` [Example 62, (2S)-5-Oxo-5-[4-[(2-oxopyrrolidin-1-yl)methyl]piperidin-1-yl]-2-[1-tosyl-L-prolylamino]pentanoic Acid] yielded a 50% inhibitory concentration (IC50) of 188 nM.

In turn, `CN(C)CC1CCN(C(=O)CC[C@H](NC(=O)[C@@H]2CCCN2S(=O)(=O)c2cc(Cl)cc(Cl)c2)C(=O)O)CC1` [Example 83, (2S)-2-[1-(3,5-Dichlorophenylsulfonyl)-L-prolylamino]-5-[4-(dimethylaminomethyl)piperidin-1-yl]-5-oxopentanoic Acid] registered an IC50 of 65 nM.

`Cc1ccc(S(=O)(=O)N2CCC[C@H]2C(=O)N[C@@H](CCC(=O)N2CCN(Cc3cccs3)CC2)C(=O)O)cc1` [Example 77, (2S)-5-Oxo-5-[4-(2-thienylmethyl)piperazin-1-yl]-2-[[1-tosyl-L-prolyl]amino]pentanoic Acid] returned an IC50 of 247 nM.

In turn, `Cc1ccc(S(=O)(=O)N2CCC[C@H]2C(=O)N[C@@H](CCC(=O)N2CCN(Cc3ccccn3)CC2)C(=O)O)cc1` [Example 75, (2S)-5-Oxo-5-[4-(2-pyridylmethyl)piperazin-1-yl]-2-[[1-tosyl-L-prolyl]amino]pentanoic Acid] came in with an IC50 of 101 nM.

`CC(C)(C)NC(=O)NCC1CCN(C(=O)CC[C@H](NC(=O)[C@@H]2CCCN2S(=O)(=O)c2cc(Cl)cc(Cl)c2)C(=O)O)CC1` [Example 56, (2S)-5-[4-[(N′-tert-Butylureido)methyl]piperidin-1-yl]-2-[1-(3,5-dichlorophenylsulfonyl)-L-prolylamino]-5-oxopentanoic Acid]: inhibition was half-maximal at 23 nM (IC50). This IC50 is about 4.4-fold lower than that of the molecule before.

In the case of `O=C(O)[C@H](CCC(=O)N1CCC(CN2CCCCC2)CC1)NC(=O)[C@@H]1CCCN1S(=O)(=O)c1cc(Cl)cc(Cl)c1` [Example 94, (2S)-2-[1-(3,5-Dichlorophenylsulfonyl)-L-prolylamino]-5-oxo-5-[4-(1-piperidylmethyl)piperidin-1-yl]pentanoic Acid], the IC50 amounted to 14.1 nM.

Take `CN1CCN(CC2CCN(C(=O)CC[C@H](NC(=O)[C@@H]3CCCN3S(=O)(=O)c3cc(Cl)cc(Cl)c3)C(=O)O)CC2)CC1` [Example 79, (2S)-2-[1-(3,5-Dichlorophenylsulfonyl)-L-prolylamino]-5-[4-(4-methylpiperazin-1-ylmethyl)piperidin-1-yl]-5-oxopentanoic Acid]: the IC50 is 7.6 nM.

Take `CCc1nc2c(C)cc(C)nc2n1CC1CCN(C(=O)CC[C@H](NC(=O)[C@@H]2CCCN2S(=O)(=O)c2cc(Cl)cc(Cl)c2)C(=O)O)CC1` [Example 65]: it took 45 nM to reach half-maximal inhibition (IC50).

Regarding `O=C(O)[C@H](CCC(=O)N1CCC(Cn2c(=O)[nH]c3cnccc32)CC1)NC(=O)[C@@H]1CCCN1S(=O)(=O)c1cc(Cl)cc(Cl)c1` [Example 86, (2S)-2-[1-(3,5-Dichlorophenylsulfonyl)-L-prolylamino]-5-oxo-5-[4-(2-oxo-2,3-dihydroimidazo[4,5-c]pyridin-1-ylmethyl)piperidin-1-yl]pentanoic Acid], the IC50 stood at 18 nM.

`CN1CCN(C(=O)NCC2CCN(C(=O)CC[C@H](NC(=O)[C@@H]3CCCN3S(=O)(=O)c3cc(Cl)cc(Cl)c3)C(=O)O)CC2)CC1` [Example 97, (2S)-2-[1-(3,5-Dichlorophenylsulfonyl)-L-prolylamino]-5-[4-[[(4-methylpiperazin-1-yl)carbonylamino]methyl]piperidin-1-yl]-5-oxopentanoic Acid] came in with an IC50 of 122 nM. Against the preceding molecule, the IC50 is about 6.8-fold higher.

For the molecule `O=C(O)[C@H](CCC(=O)N1CCC(CN2CCOC2=O)CC1)NC(=O)[C@@H]1CCCN1S(=O)(=O)c1cc(Cl)cc(Cl)c1` [Example 70, (2S)-2-[1-(3,5-Dichlorophenylsulfonyl)-L-prolylamino]-5-oxo-5-[4-(2-oxooxazolidin-3-ylmethyl)piperidin-1-yl]pentanoic Acid], it took 17 nM to reach half-maximal inhibition (IC50). This IC50 is about 7.2-fold lower than that of the molecule before.

On to `CCCc1nc2cnccc2n1CC1CCN(C(=O)CC[C@H](NC(=O)[C@@H]2CCCN2S(=O)(=O)c2cc(Cl)cc(Cl)c2)C(=O)O)CC1` [Example 119, (2S)-2-[1-(3,5-Dichlorophenylsulfonyl)-L-prolylamino]-5-oxo-5-[4-(2-propylimidazo[4,5-c]pyridin-1-ylmethyl)piperidin-1-yl]pentanoic Acid], for which inhibition was half-maximal at 49.8 nM (IC50).

Regarding `CN1CCN(C(=O)OCCC2CCN(C(=O)CC[C@H](NC(=O)[C@@H]3CCCN3S(=O)(=O)c3cc(Cl)cc(Cl)c3)C(=O)O)CC2)CC1` [Example 93, (2S)-2-[1-(3,5-Dichlorophenylsulfonyl)-L-prolylamino]-5-[4-[2-[(4-methylpiperazin-1-yl)carbonyloxy]ethyl]piperidin-1-yl]5-oxopentanoic Acid], the IC50 came out at 26.7 nM.

Take `CCOCCn1c(CN2CCN(C(=O)CC[C@H](NC(=O)[C@@H]3CCCN3S(=O)(=O)c3ccc(C)cc3)C(=O)O)CC2)nc2ccccc21` [Example 74, (2S)-5-[4-[[1-(2-Ethoxyethyl)benzimidazol-2-yl]methyl]piperazin-1-yl]-5-oxo-2-[[1-tosyl-L-prolyl]amino]pentanoic Acid]: half-maximal inhibition (IC50) required 48 nM. Compared with the last molecule, the IC50 is about 1.8-fold higher.

The molecule `O=C(O)[C@H](CCC(=O)N1CCC(CCN2CCOCC2)CC1)NC(=O)[C@@H]1CCCN1S(=O)(=O)c1cc(Cl)cc(Cl)c1` [Example 80, (2S)-2-[1-(3,5-Dichlorophenylsulfonyl)-L-prolylamino]-5-[4-[2-(4-morpholinyl)ethyl]piperidin-1-yl]-5-oxopentanoic Acid] yielded an IC50 of 0.5 nM. This IC50 lies about 96-fold lower than the previous one.

For the molecule `CCNCC1CCN(C(=O)CC[C@H](NC(=O)[C@@H]2CCCN2S(=O)(=O)c2cc(Cl)cc(Cl)c2)C(=O)O)CC1` [Example 96, (2S)-2-[1-(3,5-Dichlorophenylsulfonyl)-L-prolylamino]-5-[4-[(ethylamino)methyl]piperidin-1-yl]-5-oxopentanoic Acid], the IC50 stood at 74.8 nM.

The molecule `Cc1ccc(S(=O)(=O)N2CCC[C@H]2C(=O)N[C@@H](CCC(=O)N2CCC(CNc3nccc(C(F)(F)F)n3)CC2)C(=O)O)cc1` [Example 64, (2S)-5-Oxo-2-[1-tosyl-L-prolyl]amino-5-[4-[[4-(trifluoromethyl)pyrimidin-2-yl]aminomethyl]piperidin-1-yl]pentanoic Acid] registered an IC50 of 193 nM. This IC50 lies about 2.6-fold higher than the previous one.

“(2S)-2-[1-(3,5-Dichlorophenylsulfonyl)-L-prolylamino]-5-oxo-5-[4-(1-pyrrolylmethyl)piperidin-1-yl]pentanoic Acid [Example 81]” came in with an IC50 of 33 nM.

With `CC(C)S(=O)(=O)NCC1CCN(C(=O)CC[C@H](NC(=O)[C@@H]2CCCN2S(=O)(=O)c2cc(Cl)cc(Cl)c2)C(=O)O)CC1` [Example 60, (2S)-2-[1-(3,5-Dichlorophenylsulfonyl)-L-prolylamino]-5-[4-[(isopropylsulfonylamino)methyl]piperidin-1-yl]-5-oxopentanoic Acid], the IC50 amounted to 11.6 nM.

Regarding `O=C(O)[C@H](CCC(=O)N1CCC(CNc2ccncc2)CC1)NC(=O)[C@@H]1CCCN1S(=O)(=O)c1cc(Cl)cc(Cl)c1` [Example 99, (2S)-2-[1-(3,5-Dichlorophenylsulfonyl)-L-prolylamino]-5-oxo-5-[4-(4-pyridylaminomethyl)piperidin-1-yl]pentanoic Acid], the 50% inhibitory concentration (IC50) worked out at 13.1 nM.
